Measured values reported in PubChem BioAssay AID248 (DTP/NCI, 2004).
Values joined by “and” are separate entries in the source; they are usually repeats but may differ in a detail not shown here. Equal entries are not always repeated. Inconclusive results and toxic doses are left out.

Tested on: L1210 leukemia ip in BDF1 mice, survival T/C
Assay: NCI In Vivo Anticancer Drug Screen. Data for tumor model L1210 Leukemia (intraperitoneal) in B6D2F1 (BDF1) mice
Conditions: endpoint: mean survival time, higher = longer survival
Procedure, shortened: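 Antitumor effect is assessed in tumor-bearing animals. Survival in the compound arm is compared with a vehicle-dosed control arm and expressed as their quotient.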

[1] = dose: 100.0 mg/kg/injection, schedule: Q01DX001 (ip), vehicle: carboxymethylcellulose (CMC)
[2] = dose: 200.0 mg/kg/injection, schedule: Q01DX001 (ip), vehicle: carboxymethylcellulose (CMC)
[3] = dose: 400.0 mg/kg/injection, schedule: Q01DX001 (ip), vehicle: carboxymethylcellulose (CMC)
[4] = dose: 50.0 mg/kg/injection, schedule: Q01DX001 (ip), vehicle: saline
[5] = dose: 100.0 mg/kg/injection, schedule: Q01DX001 (ip), vehicle: saline
[6] = dose: 100.0 mg/kg/injection, schedule: Q04DX003 (ip), vehicle: saline with Tween-80
[7] = dose: 200.0 mg/kg/injection, schedule: Q01DX001 (ip), vehicle: saline
[8] = dose: 400.0 mg/kg/injection, schedule: Q01DX001 (ip), vehicle: saline
[9] = dose: 12.5 mg/kg/injection, schedule: Q04DX003 (ip), vehicle: saline
[10] = dose: 25.0 mg/kg/injection, schedule: Q04DX003 (ip), vehicle: saline
[11] = dose: 50.0 mg/kg/injection, schedule: Q01DX009 (ip), vehicle: saline with Tween-80
[12] = dose: 100.0 mg/kg/injection, schedule: Q01DX009 (ip), vehicle: saline with Tween-80
[13] = dose: 50.0 mg/kg/injection, schedule: Q04DX003 (ip), vehicle: saline
[14] = dose: 100.0 mg/kg/injection, schedule: Q01DX009 (ip), vehicle: Klucel (hydroxypropylcellulose) (HPC)
[15] = dose: 100.0 mg/kg/injection, schedule: Q04DX003 (ip), vehicle: Klucel (hydroxypropylcellulose) (HPC)
[16] = dose: 200.0 mg/kg/injection, schedule: Q01DX009 (ip), vehicle: Klucel (hydroxypropylcellulose) (HPC)
[17] = dose: 200.0 mg/kg/injection, schedule: Q04DX003 (ip), vehicle: Klucel (hydroxypropylcellulose) (HPC)
[18] = dose: 400.0 mg/kg/injection, schedule: Q01DX009 (ip), vehicle: Klucel (hydroxypropylcellulose) (HPC)
[19] = dose: 400.0 mg/kg/injection, schedule: Q04DX003 (ip), vehicle: Klucel (hydroxypropylcellulose) (HPC)

With `O=[N+]([O-])c1ccc(-c2ccccc2Cl)c([N+](=O)[O-])c1` the T/C [1] was 91 % of control, the T/C [2] was 91 % of control and the T/C [3] was 97 % of control.
In the case of `NC(Cc1ccccc1)c1nn[nH]n1` (stereo not given), the T/C (dose: 55.0 mg/kg/injection, schedule: Q01DX Z (ip), vehicle: methylcellulose (MC)) is reported as 93 % of control and the T/C (dose: 83.0 mg/kg/injection, schedule: Q01DX Z (ip), vehicle: methylcellulose (MC)) is reported as 110 % of control.
`Cc1[nH]ccc2c(C)c3nc4ccccc4c3cc12` was tested, and the T/C (dose: 2.5 mg/kg/injection, schedule: Q01DX Z (ip), vehicle: carboxymethylcellulose (CMC)) was 110 % of control, the T/C (dose: 5.0 mg/kg/injection, schedule: Q01DX Z (ip), vehicle: carboxymethylcellulose (CMC)) was 114 % of control and the T/C (dose: 29.0 mg/kg/injection, schedule: Q04DX003 (ip), vehicle: saline with Tween-80) was 122 % of control. For the same compound, the T/C (dose: 40.0 mg/kg/injection, schedule: Q01DX Z (ip), vehicle: saline) was 151 % of control, the T/C [4] was 98 % of control and the T/C (dose: 75.0 mg/kg/injection, schedule: Q01DX Z (ip), vehicle: saline) was 110 % of control. For the same compound, the T/C [5] was 112 % of control, the T/C (dose: 100.0 mg/kg/injection, schedule: Q01DX Z (ip), vehicle: saline) was 92 % of control and the T/C [6] was 165 % of control. The T/C (dose: 150.0 mg/kg/injection, schedule: Q04DX003 (ip), vehicle: saline with Tween-80) was 153 % of control, the T/C [7] was 110 % of control and the T/C [8] was 122 % of control.
In the case of `Nc1nc(=O)n(C2OC(CO)C(O)C2O)c2scnc12` (stereo not given), the T/C (dose: 50.0 mg/kg/injection, schedule: Q01DX005 (ip), vehicle: saline) is reported as 107 % of control and the T/C (dose: 100.0 mg/kg/injection, schedule: Q01DX005 (ip), vehicle: saline) is reported as 107 % of control.
In the case of `O=C1NC(=O)C(c2ccc(Cl)cc2)N1` (stereo not given), the T/C [4] is reported as 100 % of control, the T/C [5] is reported as 94 % of control and the T/C [7] is reported as 97 % of control. For the same compound, the T/C [8] was 96 % of control.
For `CCCn1cnc2c(=S)nc[nH]c21`, the T/C (dose: 12.5 mg/kg/injection, schedule: Q01DX Z (ip), vehicle: carboxymethylcellulose (CMC)) was 108 % of control, the T/C (dose: 25.0 mg/kg/injection, schedule: Q01DX Z (ip), vehicle: carboxymethylcellulose (CMC)) was 102 % of control and the T/C (dose: 37.5 mg/kg/injection, schedule: Q04DX003 (ip), vehicle: Klucel (hydroxypropylcellulose) (HPC)) was 97 % of control. The T/C (dose: 50.0 mg/kg/injection, schedule: Q01DX Z (ip), vehicle: carboxymethylcellulose (CMC)) was 104 % of control, the T/C (dose: 75.0 mg/kg/injection, schedule: Q04DX003 (ip), vehicle: Klucel (hydroxypropylcellulose) (HPC)) was 103 % of control and the T/C (dose: 150.0 mg/kg/injection, schedule: Q04DX003 (ip), vehicle: Klucel (hydroxypropylcellulose) (HPC)) was 123 % of control. For the same compound, the T/C (dose: 300.0 mg/kg/injection, schedule: Q04DX003 (ip), vehicle: Klucel (hydroxypropylcellulose) (HPC)) was 151 % of control.
`CNNC(=O)CCc1ccccc1` was tested, and the T/C (dose: 10.0 mg/kg/injection, schedule: Q01DX009 (ip), vehicle: saline) was 103 % of control, the T/C (dose: 20.0 mg/kg/injection, schedule: Q01DX009 (ip), vehicle: saline) was 93 % of control and the T/C (dose: 40.0 mg/kg/injection, schedule: Q01DX009 (ip), vehicle: saline) was 90 % of control.
With `c1ccc(C2(c3ccccc3)CC([P+](c3ccccc3)(c3ccccc3)c3ccccc3)N=N2)cc1` (stereo not given) the T/C (dose: 10.0 mg/kg/injection, schedule: Q01DX001 (ip), vehicle: saline) was 103 % of control, the T/C (dose: 20.0 mg/kg/injection, schedule: Q01DX001 (ip), vehicle: saline) was 111 % of control and the T/C (dose: 40.0 mg/kg/injection, schedule: Q01DX001 (ip), vehicle: saline) was 112 % of control.
With `O=[N+]([O-])/C=C/c1ccccc1O` the T/C (dose: 6.25 mg/kg/injection, schedule: Q04DX003 (ip), vehicle: saline) was 92 % of control, the T/C [9] was 101 % of control and the T/C [10] was 92 % of control.
In the case of `O=C1CS/C(=N/N=C/c2ccccc2)N1`, the T/C [11] is reported as 104 % of control, the T/C [12] is reported as 91 % of control and the T/C (dose: 200.0 mg/kg/injection, schedule: Q01DX009 (ip), vehicle: saline with Tween-80) is reported as 95 % of control.
With `CC(=O)OCC1OC(Sc2nc3ncnc(N)c3[nH]2)C(OC(C)=O)C(OC(C)=O)C1OC(C)=O` (stereo not given) the T/C [5] was 104 % of control, the T/C [7] was 102 % of control and the T/C [8] was 97 % of control.
`NC(CS)=NC1CCCC1` was tested, and the T/C [9] was 108 % of control, the T/C [10] was 115 % of control and the T/C [13] was 112 % of control.
With `Cn1c(=O)c2c(nc(NCC[N+](C)(C)C)n2C)n(C)c1=O` the T/C (dose: 15.0 mg/kg/injection, schedule: Q01DX001 (ip), vehicle: saline) was 92 % of control and the T/C (dose: 30.0 mg/kg/injection, schedule: Q01DX001 (ip), vehicle: saline) was 97 % of control.
`COc1ccc(CCNC(=O)C2(C(C)C)OC3(O)C4CCCN4C(=O)C(C(C)C)N3C2=O)cc1OC` (stereo not given) was tested, and the T/C (dose: 12.5 mg/kg/injection, schedule: Q04DX003 (ip), vehicle: alcohol) was 98 % of control, the T/C (dose: 25.0 mg/kg/injection, schedule: Q04DX003 (ip), vehicle: alcohol) was 97 % of control and the T/C (dose: 25.0 mg/kg/injection, schedule: Q04DX003 (ip), vehicle: saline with Tween-80) was 98 % of control. The T/C (dose: 50.0 mg/kg/injection, schedule: Q04DX003 (ip), vehicle: alcohol) was 104 % of control, the T/C (dose: 50.0 mg/kg/injection, schedule: Q04DX003 (ip), vehicle: saline with Tween-80) was 114 % of control and the T/C (dose: 100.0 mg/kg/injection, schedule: Q04DX003 (ip), vehicle: alcohol) was 101 % of control. For the same compound, the T/C [6] was 98 % of control and the T/C (dose: 200.0 mg/kg/injection, schedule: Q04DX003 (ip), vehicle: saline with Tween-80) was 111 % of control.
In the case of `CC(C)CCC1(CCBr)C(=O)NC(=Nc2ccccc2)NC1=O` (stereo not given), the T/C [1] is reported as 96 % of control, the T/C [2] is reported as 102 % of control and the T/C [3] is reported as 94 % of control.
With `CCOC(=O)C(C(=O)OCC)N1C(=O)c2ccccc2C1=O` the T/C [14] was 100 % of control, the T/C [15] was 106 % of control and 102 % of control and the T/C [16] was 102 % of control. For the same compound, the T/C [17] was 105 % of control and 104 % of control, the T/C [18] was 102 % of control and the T/C [19] was 101 % of control and 100 % of control.
For `COc1cc(CC#N)cc(OC)c1`, the T/C [11] was 102 % of control and the T/C [12] was 88 % of control.
With `OCCC[P+](c1ccccc1)(c1ccccc1)c1ccccc1` the T/C (dose: 25.0 mg/kg/injection, schedule: Q01DX009 (ip), vehicle: Klucel (hydroxypropylcellulose) (HPC)) was 96 % of control, the T/C (dose: 50.0 mg/kg/injection, schedule: Q01DX009 (ip), vehicle: Klucel (hydroxypropylcellulose) (HPC)) was 100 % of control and the T/C [15] was 102 % of control.
In the case of `c1ccc(-c2nc3ccccc3c3ccccc23)cc1`, the T/C [15] is reported as 101 % of control, the T/C [17] is reported as 103 % of control and the T/C [19] is reported as 106 % of control.
For `Sc1ccccc1-n1c(-c2ccccc2)ccc1-c1ccccc1`, the T/C [4] was 96 % of control, the T/C [5] was 93 % of control and the T/C [7] was 98 % of control. For the same compound, the T/C [8] was 87 % of control.
`COc1cc(N)ccc1C(=O)NC(CCC(=O)O)C(=O)O` (stereo not given) was tested, and the T/C (dose: 100.0 mg/kg/injection, schedule: Q01DX001 (ip), vehicle: Klucel (hydroxypropylcellulose) (HPC)) was 103 % of control, the T/C (dose: 200.0 mg/kg/injection, schedule: Q01DX001 (ip), vehicle: Klucel (hydroxypropylcellulose) (HPC)) was 100 % of control and the T/C (dose: 400.0 mg/kg/injection, schedule: Q01DX001 (ip), vehicle: Klucel (hydroxypropylcellulose) (HPC)) was 103 % of control.
In the case of `CCOC(=O)C1C(CCC#N)C(=O)CCC1(C#N)c1ccccc1` (stereo not given), the T/C (dose: 100.0 mg/kg/injection, schedule: Q04DX003 (ip), vehicle: acetone) is reported as 98 % of control, the T/C (dose: 200.0 mg/kg/injection, schedule: Q04DX003 (ip), vehicle: acetone) is reported as 95 % of control and the T/C (dose: 400.0 mg/kg/injection, schedule: Q04DX003 (ip), vehicle: acetone) is reported as 98 % of control.
For `CC1(CO)CCCC2(C)c3cc(O)ccc3CCC12` (stereo not given), the T/C (dose: 100.0 mg/kg/injection, schedule: Q01DX009 (ip), vehicle: acetone) was 90 % of control, the T/C (dose: 100.0 mg/kg/injection, schedule: Q04DX003 (ip), vehicle: saline) was 97 % of control and the T/C (dose: 200.0 mg/kg/injection, schedule: Q04DX003 (ip), vehicle: saline) was 97 % of control. The T/C (dose: 400.0 mg/kg/injection, schedule: Q04DX003 (ip), vehicle: saline) was 97 % of control.
For `COC(/C=C\C(OC)OC)OC`, the T/C [9] was 106 % of control, the T/C [10] was 101 % of control and the T/C [13] was 101 % of control. The T/C [14] was 98 % of control, the T/C [16] was 96 % of control and the T/C [18] was 96 % of control.
